Experimental data as given in PubChem BioAssay (NCI).
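Where inhibition never reached the appropriate level, the endpoint shown equals the highest concentration tested. Otherwise, values were interpolated linearly from a five-concentration, 48-hour dose response in 96-well plates. The concentration for 50% growth inhibition is given as GI50. TGI denotes the concentration required for complete inhibition of growth.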

Experiments:
Assay in all cases: DTP human tumour cell line panel, 48 h
[1] = test system: A498 renal
[2] = test system: PC-3 prostate
[3] = test system: HL-60(TB) leukemia
[4] = test system: SK-OV-3 ovarian
[5] = test system: U251 CNS
[6] = test system: OVCAR-5 ovarian
[7] = test system: UACC-257 melanoma
[8] = test system: HCT-15 colon
[9] = test system: MOLT-4 leukemia
[10] = test system: A549 NSCLC

Row | SMILES | TGI [1] [µM] | TGI [2] [µM] | TGI [3] [µM] | TGI [4] [µM] | TGI [5] [µM] | TGI [6] [µM] | TGI [7] [µM] | TGI [8] [µM] | TGI [9] [µM] | TGI [10] [µM] | GI50 [1] [µM] | GI50 [2] [µM] | GI50 [3] [µM] | GI50 [4] [µM] | GI50 [5] [µM] | GI50 [6] [µM] | GI50 [7] [µM] | GI50 [8] [µM] | GI50 [9] [µM] | GI50 [10] [µM]
1 | Cc1cc2nc(C=C(C(F)(F)F)C(F)(F)F)oc2cc1C | > 10 | 5.08 | 5.03 | > 10 | > 10 | 7.03 | > 10 | 9.62 | 5.66 | > 10 |  |  |  |  |  |  |  |  |  | 
2 | O=C(Nc1n[nH]c2cc(-c3ccccc3)ccc12)C1CC1 | > 25 | > 25 | > 20.7 | > 25 | > 25 | > 25 | > 25 | > 25 | > 25 | > 25 | 16.1 | 10.5 | 6.34 | 14.2 | 13.6 | > 25 | > 25 | 4.03 | > 16.6 | 11.6
3 | c1ccc(Sc2ccc(Cc3nc4cc5ccccc5cc4[nH]3)cc2)cc1 | 57.8 | > 64.3 | > 100 | > 24.8 | > 57.9 | 98.8 | 29.1 | 53.9 | > 100 | > 61.4 | 21.5 | 4.56 | 76.4 | 3.27 | 3.68 | 17.9 | 5.33 | 0.205 | 8.18 | 2.33
4 | CN1CCc2nc(N)nc(-c3nc(N)nc4c3CN(C)CC4)c2C1 | > 100 | > 100 | > 100 | > 100 | > 100 | > 100 | > 100 | > 100 | > 100 | > 100 |  |  |  |  |  |  |  |  |  | 
5 | Cc1cc(C(=O)Nc2ccc3cc(CN4CCOCC4)ccc3n2)c(C)n1-c1ccccc1 | 64.2 | 6.69 | 5.06 | 40.2 | > 100 | 57.6 | 4.07 | 20.4 | 3.29 | 12.1 | 3.09 | 1.34 | 1.71 | 4.54 | 3.78 | 10.2 | 1.27 | 2.41 | 0.812 | 2.42
6 | COc1cc2ncnc(-n3ncc4cc(NC(=O)Nc5ccccc5)ccc43)c2cc1OC | 0.896 | 3.36 | 4.52 | 4.6 | 3.23 | 13.8 | 5.13 | 11.1 | 3.56 | 8.74 | 0.21 | 1.09 | 1.57 | 0.42 | 1.27 | 1.24 | 2.32 | 0.579 | 0.86 | 1.79
7 | CC(C)c1c(O)c(O)c2c(c1O)C(=O)C(O)=C1C(C)(C)CCC[C@@]12C | 11.9 | 11.8 | 4.78 | 15.6 | 11.1 | 19.5 | 8.61 | 13.2 | 5.99 | 14.3 |  |  |  |  |  |  |  |  |  | 
8 | Cc1ccc(NC(=O)c2cccc(C(C)(C)C#N)c2)cc1Nc1ccc2ncn(C)c(=O)c2c1 | 4.08 | > 100 | 13.9 | > 100 | > 100 | > 100 | > 100 | > 100 | > 100 | > 100 | 0.742 | 25.9 | 0.0547 | > 100 | 7.19 | 0.123 | 0.0405 | 3.11 | 5.2 | 8.16
9 | CC(C)c1ccc(-c2cc(-c3cn[nH]c3-c3ccccn3)ccn2)cc1 | > 25 | > 25 | > 25 | > 25 | > 25 | > 25 | > 25 | > 25 | > 24.1 | > 25 | > 13.6 | 9 | 11.4 | > 23.4 | 11.8 | > 16.6 | > 25 | 8.65 | 8.06 | 13.7
10 | CC/C=C\C[C@H](O)C/C=C1/C(=O)C=C[C@@H]1C/C=C\CCCC(=O)OC | 14.4 | 7.29 | 7.07 | 15.4 | 4.07 | 6.69 | 7.09 | 2.79 | 4.8 | 7.63 | 4.91 | 2.7 | 1.74 | 5.37 | 1.63 | 2.7 | 2.36 | 0.538 | 0.945 | 2.78
